Experimental data published in patent US20240368351A1, “FACTORS CONTROLLING DRUG RELEASE IN CROSS-LINKED POLY(VALEROLACTONE) BASED MATRICES” (Pendant Biosciences, Inc., priority 2019, published 2024).
Values after ≈ are worked out from the molar mass of the structure shown. Blank lines part the entries; values can stand above or below the compound they belong to.

Tests used:
[1] = Drug solubility in different release media (PBS with Tween 80 or SDS); type: physicochemical; settings: for solubility at 48 h: release media (PBS with Tween 80 or SDS), 37 °C, pH 7.4, aqueous with cosolvent or surfactant or cyclodextrin, thermodynamic from solid
Method: Mikkelsen, L. M., Enzyme solubility in liquid detergent and use of detergent composition. […] Crotts, G.; Park, T. G. Protein delivery from poly(lactic-co-glycolic acid) biodegradable microspheres: Release kinetics and stability issues. […] FDA.
The solutions were centrifuged at 8000 rpm for 10 minutes, and a 1 ml aliquot was withdrawn, filtered through a 0.45 μm nylon membrane, and analyzed by HPLC.

[2] = In vitro drug release from cross-linked matrices (CPs), sample-and-separate, with mathematical modeling (Fick diffusion); type: physicochemical; settings: for cumulative release from the drug-loaded crosslinked copolymer: embodiment statement
Method: Evaluation of in vitro drug release: impact of the nature of the drug, polymer and release media: In the in vitro release studies the impact of a number of variables was evaluated including nature of the drug, compatibility between the drug and the polymer matrix, degree of crystallinity of the matrix, M.W. of the copolymer, cross-linking density and the composition of the release media. The commonly used, sample-and-separate method was employed to evaluate drug release from the cross-linked matrices. D'Souza, S. S.; DeLuca, P. P. Methods to Assess in vitro Drug Release from Injectable Polymeric Particulate Systems. Pharmaceutical Research 2006, 23, 3, 460-474.
The Peppas-Sahlin model, where diffusion and polymer relaxation are known to be the underlying drivers of drug release provided the best fit in terms of R^2adjusted (FIGS. 8A and 8C) For cylindrical shaped matrices, Fickian diffusion is considered to be operative when the ratio of diameter to thickness (n or m) of the matrix is equal to or less than 0.45. If the value is […], the drug release mechanism is considered non-Fickian; whereas, if n is 0.89 drug release is considered to be case II transport. Herein, the dimension and the geometry of the matrices evaluated have a value of 0.78<n<0.80. […]
Protocols for drug analysis by HPLC and cytotoxicity evaluation of the cross-linked matrices: The drug release was analyzed by reverse phase HPLC using an Agilent 1200 HPLC system with Agilent ChemStation software, an XDB C18 column (150×4.6 mm i.d+guard column) and UV detection. […] Drug concentrations were quantified using calibration curves using standards that ranged in concentration from 1 to 100 μg/ml (0.9986≤R^2≤1).
The CPs were incubated at 37° C. under constant stirring and at pre-determined time points, a 1 ml aliquout was removed and replaced with 1 mL of fresh media and the samples were immediately frozen at −20° C. for storage prior to HPLC analysis. […] The drug was reconstituted in 1 ml of the HPLC mobile phase and analyzed to correct the DLC and release curves. […]

[3] = logP (octanol-water partition) by shake tube method; type: physicochemical
[4] = cited from earlier work
[5] = Solubility of Drug X in organic solvents and water; type: physicochemical
[6] = Stability of Drug X freebase in PBS with or without SDS by HPLC; type: physicochemical
Excerpt: The appearance of second peak correlates with concentration of the drug.

[7] = PBS with SDS, 120 μg/ml, 2 days
[8] = PBS with SDS, 120 μg/ml, 3 days
[9] = PBS with SDS, 120 μg/ml, 4 days

solubility at 48 h [1]: 37.9 ± 0.4 µg/mL (≈ 71.1 µM)
cumulative release from the drug-loaded crosslinked copolymer ([2]; after 34 days): about 42 wt %
SMILES: CC(C)(C)CC(=O)OCC(=O)[C@@]12OC(C)(C)O[C@@H]1C[C@H]1[C@@H]3CCC4=CC(=O)C=C[C@]4(C)[C@@]3(F)[C@@H](O)C[C@@]12C [Triamcinolone hexacetonide, triamcinolone hexacetonide]

SMILES: COc1cc(/C=C/C(=O)CC(=O)/C=C/c2ccc(O)c(OC)c2)ccc1O [Curcumin, curcumin]
Calculated LogP [3]: 3
solubility at 48 h [1]: 45.6 ± 1.05 µg/mL (≈ 124 µM)

SMILES: CC1(C)S[C@@H]2[C@H](NC(=O)Cc3ccccc3)C(=O)N2[C@H]1C(=O)O [Penicillin G, reference compound]
Log P [4]: 1.83
Water solubility [4]: water (0.21 mg/mL)
Water solubility (words) [4]: Slightly soluble in
pKa [4]: 3.96

period of release ([2]; from all matrices, PBS with 0.5% SDS, 37° C.): less than a week
SMILES: CC(=O)Nc1ccc(O)cc1 [Acetaminophen, acetaminophen]

SMILES: CC(C)OC(=O)[C@H](C)N[P@](=O)(CO[C@H](C)Cn1cnc2c(N)ncnc21)Oc1ccccc1.CC(C)OC(=O)[C@H](C)N[P@](=O)(CO[C@H](C)Cn1cnc2c(N)ncnc21)Oc1ccccc1.O=C(O)/C=C/C(=O)O [Drug X fumarate]
Solubility in EtOH/DMSO (50/50) ([5]; 5 mg per 100 mL or μL): Soluble, and
Solubility in DMSO/Water (50/50) ([5]; 5 mg per 200 mL or μL): Insoluble
Solubility in Water ([5]; 5 mg per 200 mL or μL): Insoluble

logP ([3]; read-out: Calculated LogP): 2.7
solubility, times greater in 0.5% SDS than in 0.1% SDS ([1]; PBS): 10 times
solubility, times greater in 0.5% SDS than in 0.1% Tween 80 ([1]; PBS): 50 times
solubility at 48 h [1]: 106 ± 0.57 µg/mL (≈ 124 µM)
cumulative release from the drug-loaded crosslinked copolymer ([2]; after 35 days): about 58 wt %
SMILES: CC(=O)O[C@H]1C(=O)[C@@]2(C)[C@H]([C@H](OC(=O)c3ccccc3)[C@]3(O)C[C@H](OC(=O)[C@H](O)[C@@H](NC(=O)c4ccccc4)c4ccccc4)C(C)=C1C3(C)C)[C@]1(OC(C)=O)CO[C@@H]1C[C@@H]2O [Paclitaxel, paclitaxel]

SMILES: CC(C)OC(=O)[C@H](C)N[P@](=O)(CO[C@H](C)Cn1cnc2c(N)ncnc21)Oc1ccccc1 [Drug X freebase]
area of the HPLC peak corresponding to Drug X freebase as a function of time ([6]; PBS with 0.5% SDS): constantly decreased as a function of time
Area (Drug X freebase peak) ([6]; PBS with SDS, 12 μg/ml, 1 hr): 191.5
Area (Drug X freebase peak) ([6]; PBS with SDS, 12 μg/ml, 3 hrs): 185.7
Area (Drug X freebase peak) ([6]; PBS with SDS, 12 μg/ml, 7 hrs): 182.8
Area (Drug X freebase peak) ([6]; PBS with SDS, 12 μg/ml, 1 day): 179.2
Area (Drug X freebase peak) ([6]; PBS with SDS, 12 μg/ml, 2 days): 178.7
Area (Drug X freebase peak) ([6]; PBS with SDS, 12 μg/ml, 3 days): 155.2
Area (Drug X freebase peak) ([6]; PBS with SDS, 12 μg/ml, 4 days): 155.8
Area (Drug X freebase peak) ([6]; PBS with SDS, 12 μg/ml, T = 0): 192.6
Area (2nd) second peak ([6]; PBS with SDS, 60 μg/ml, 1 hr): (99.6)
Area (Drug X freebase peak) ([6]; PBS with SDS, 60 μg/ml, 1 hr): 934.7
Area (2nd) second peak ([6]; PBS with SDS, 60 μg/ml, 3 hrs): (85.18)
Area (Drug X freebase peak) ([6]; PBS with SDS, 60 μg/ml, 3 hrs): 909.05
Area (2nd) second peak ([6]; PBS with SDS, 60 μg/ml, 7 hrs): (95.5)
Area (Drug X freebase peak) ([6]; PBS with SDS, 60 μg/ml, 7 hrs): 906.7
Area (2nd) second peak ([6]; PBS with SDS, 60 μg/ml, 1 day): (87.6)
Area (Drug X freebase peak) ([6]; PBS with SDS, 60 μg/ml, 1 day): 867.8
Area (2nd) second peak ([6]; PBS with SDS, 60 μg/ml, 2 days): (77.0)
Area (Drug X freebase peak) ([6]; PBS with SDS, 60 μg/ml, 2 days): 783.7
Area (2nd) second peak ([6]; PBS with SDS, 60 μg/ml, 3 days): (72.3)
Area (Drug X freebase peak) ([6]; PBS with SDS, 60 μg/ml, 3 days): 712.2
Area (2nd) second peak ([6]; PBS with SDS, 60 μg/ml, 4 days): (68.1)
Area (Drug X freebase peak) ([6]; PBS with SDS, 60 μg/ml, 4 days): 677.3
Area (2nd) second peak ([6]; PBS with SDS, 60 μg/ml, T = 0): (73.9)
Area (Drug X freebase peak) ([6]; PBS with SDS, 60 μg/ml, T = 0): 929.6
Area (2nd) second peak ([6]; PBS with SDS, 120 μg/ml, 1 hr): (223.0)
Area (Drug X freebase peak) ([6]; PBS with SDS, 120 μg/ml, 1 hr): 1768.4
Area (2nd) second peak ([6]; PBS with SDS, 120 μg/ml, 3 hrs): (219.47)
Area (Drug X freebase peak) ([6]; PBS with SDS, 120 μg/ml, 3 hrs): 1764.9
Area (2nd) second peak ([6]; PBS with SDS, 120 μg/ml, 7 hrs): (212.8)
Area (Drug X freebase peak) ([6]; PBS with SDS, 120 μg/ml, 7 hrs): 1707.5
Area (2nd) second peak ([6]; PBS with SDS, 120 μg/ml, 1 day): (189.8)
Area (Drug X freebase peak) ([6]; PBS with SDS, 120 μg/ml, 1 day): 1613.5
Area (2nd) second peak [6, 7]: (193.9)
Area (Drug X freebase peak) [6, 7]: 1539.2
Area (2nd) second peak [6, 8]: (167.5)
Area (Drug X freebase peak) [6, 8]: 1401.2
Area (2nd) second peak [6, 9]: (160.3)
Area (Drug X freebase peak) [6, 9]: 1318.3
Area (2nd) second peak ([6]; PBS with SDS, 120 μg/ml, T = 0): (218.0)
Area (Drug X freebase peak) ([6]; PBS with SDS, 120 μg/ml, T = 0): 1849.3
HPLC peak corresponding to Drug X free base as a function of time ([6]; PBS without SDS, regardless of concentration): constantly decreasing as a function of time
Area (Drug X freebase peak) ([6]; Table 47, PBS with SDS, 12 μg/ml, 1 hr): 164.51
Area (Drug X freebase peak) ([6]; Table 47, PBS with SDS, 12 μg/ml, 3 hrs): 162.2
Area (Drug X freebase peak) ([6]; Table 47, PBS with SDS, 12 μg/ml, 7 hrs): 161.0
Area (Drug X freebase peak) ([6]; Table 47, PBS with SDS, 12 μg/ml, 1 day): 132.2
Area (Drug X freebase peak) ([6]; Table 47, PBS with SDS, 12 μg/ml, 2 days): 103.6
Area (Drug X freebase peak) ([6]; Table 47, PBS with SDS, 12 μg/ml, 3 days): 84.2
Area (Drug X freebase peak) ([6]; Table 47, PBS with SDS, 12 μg/ml, 4 days): 57.5
Area (Drug X freebase peak) ([6]; Table 47, PBS with SDS, 12 μg/ml, T = 0): 169.2
Area (Drug X freebase peak) ([6]; Table 47, PBS with SDS, 60 μg/ml, 1 hr): 897.8
Area (Drug X freebase peak) ([6]; Table 47, PBS with SDS, 60 μg/ml, 3 hrs): 875.2
Area (Drug X freebase peak) ([6]; Table 47, PBS with SDS, 60 μg/ml, 7 hrs): 850.6
Area (Drug X freebase peak) ([6]; Table 47, PBS with SDS, 60 μg/ml, 1 day): 663.9
Area (Drug X freebase peak) ([6]; Table 47, PBS with SDS, 60 μg/ml, 2 days): 511.8
Area (Drug X freebase peak) ([6]; Table 47, PBS with SDS, 60 μg/ml, 3 days): 361.7
Area (Drug X freebase peak) ([6]; Table 47, PBS with SDS, 60 μg/ml, 4 days): 303.9
Area (Drug X freebase peak) ([6]; Table 47, PBS with SDS, 60 μg/ml, T = 0): 903.4
Area (Drug X freebase peak) ([6]; Table 47, PBS with SDS, 120 μg/ml, 1 hr): 1797.8
Area (Drug X freebase peak) ([6]; Table 47, PBS with SDS, 120 μg/ml, 3 hrs): 1790.0
Area (Drug X freebase peak) ([6]; Table 47, PBS with SDS, 120 μg/ml, 7 hrs): 1687.7
Area (Drug X freebase peak) ([6]; Table 47, PBS with SDS, 120 μg/ml, 1 day): 1319.2
Area (Drug X freebase peak) ([6]; Table 47, PBS with SDS, 120 μg/ml, 2 days): 1023.1
Area (Drug X freebase peak) ([6]; Table 47, PBS with SDS, 120 μg/ml, 3 days): 722.9
Area (Drug X freebase peak) ([6]; Table 47, PBS with SDS, 120 μg/ml, 4 days): 593.4
Area (Drug X freebase peak) ([6]; Table 47, PBS with SDS, 120 μg/ml, T = 0): 1841.8
Solubility EtOH ([5]; 5 mg/100 μl, cell wraps: 'Soluble, and' / 'transparent'): Soluble, and
